The target in one assay is hJAK2 (Homo sapiens (Human), UniProt O60674). The assay can be described thus: hJAK2 LANCE TR-FRET enzymatic assay. Format: biochemical. The following applies: read-out: JAK2 IC50. (In TR-FRET formats the signal depends on donor and acceptor labels being close together.)
The next assay concerns the target TBK1 (Homo sapiens (Human), UniProt Q9UHD2). The assay can be described thus: TBK1 TR-FRET enzymatic assay.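 Further: phosphorylation of a biotinylated Ser/Thr peptide by purified full-length recombinant TBK1, read by TR-FRET after 240 min at 25 °C, IC50 is the geometric mean of at least four runs.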
A further assay deals with IKKε (Homo sapiens (Human), UniProt Q14164). The assay can be described thus: IKKε TR-FRET enzymatic assay. Format: biochemical. The conditions noted are these: read-out: IKKe IC50.
IKKε, sequence (Q14164 whole entry): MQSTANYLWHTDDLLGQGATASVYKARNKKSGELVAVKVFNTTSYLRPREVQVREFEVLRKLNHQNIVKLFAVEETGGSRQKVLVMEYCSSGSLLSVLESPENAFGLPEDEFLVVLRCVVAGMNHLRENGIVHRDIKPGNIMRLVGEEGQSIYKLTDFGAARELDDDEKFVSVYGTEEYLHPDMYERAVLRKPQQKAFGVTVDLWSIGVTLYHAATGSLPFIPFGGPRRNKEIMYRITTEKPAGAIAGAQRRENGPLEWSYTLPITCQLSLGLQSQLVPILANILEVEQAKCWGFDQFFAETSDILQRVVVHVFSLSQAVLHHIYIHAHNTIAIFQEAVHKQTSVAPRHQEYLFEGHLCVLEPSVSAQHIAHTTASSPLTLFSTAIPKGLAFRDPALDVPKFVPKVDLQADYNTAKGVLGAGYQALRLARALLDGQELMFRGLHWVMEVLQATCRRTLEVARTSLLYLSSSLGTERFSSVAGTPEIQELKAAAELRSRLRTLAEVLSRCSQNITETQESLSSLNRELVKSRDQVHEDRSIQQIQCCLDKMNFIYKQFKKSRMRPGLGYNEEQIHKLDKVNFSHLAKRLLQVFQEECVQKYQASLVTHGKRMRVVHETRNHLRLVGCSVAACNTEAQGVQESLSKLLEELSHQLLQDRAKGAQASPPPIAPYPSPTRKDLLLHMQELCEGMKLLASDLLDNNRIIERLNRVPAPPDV

TBK1, sequence (Q9UHD2 whole entry): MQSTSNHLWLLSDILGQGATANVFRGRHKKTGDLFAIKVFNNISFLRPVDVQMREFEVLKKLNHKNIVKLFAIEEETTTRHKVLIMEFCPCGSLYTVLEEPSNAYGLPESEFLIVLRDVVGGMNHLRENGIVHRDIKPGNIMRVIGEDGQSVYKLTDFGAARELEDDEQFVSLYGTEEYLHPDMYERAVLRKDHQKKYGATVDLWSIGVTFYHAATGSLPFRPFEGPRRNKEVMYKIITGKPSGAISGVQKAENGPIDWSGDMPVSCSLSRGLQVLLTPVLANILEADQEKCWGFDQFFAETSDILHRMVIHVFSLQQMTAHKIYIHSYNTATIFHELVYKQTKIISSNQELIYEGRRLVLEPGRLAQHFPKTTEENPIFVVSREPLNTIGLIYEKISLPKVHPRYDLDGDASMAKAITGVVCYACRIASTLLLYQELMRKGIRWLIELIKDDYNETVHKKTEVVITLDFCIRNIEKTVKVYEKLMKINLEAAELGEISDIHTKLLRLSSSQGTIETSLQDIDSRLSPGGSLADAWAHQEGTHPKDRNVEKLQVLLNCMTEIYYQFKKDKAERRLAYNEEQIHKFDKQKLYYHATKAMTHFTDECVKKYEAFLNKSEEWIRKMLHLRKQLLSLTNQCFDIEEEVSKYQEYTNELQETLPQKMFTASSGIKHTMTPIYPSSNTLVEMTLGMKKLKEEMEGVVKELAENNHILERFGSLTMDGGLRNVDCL
hJAK2, sequence (O60674 whole entry): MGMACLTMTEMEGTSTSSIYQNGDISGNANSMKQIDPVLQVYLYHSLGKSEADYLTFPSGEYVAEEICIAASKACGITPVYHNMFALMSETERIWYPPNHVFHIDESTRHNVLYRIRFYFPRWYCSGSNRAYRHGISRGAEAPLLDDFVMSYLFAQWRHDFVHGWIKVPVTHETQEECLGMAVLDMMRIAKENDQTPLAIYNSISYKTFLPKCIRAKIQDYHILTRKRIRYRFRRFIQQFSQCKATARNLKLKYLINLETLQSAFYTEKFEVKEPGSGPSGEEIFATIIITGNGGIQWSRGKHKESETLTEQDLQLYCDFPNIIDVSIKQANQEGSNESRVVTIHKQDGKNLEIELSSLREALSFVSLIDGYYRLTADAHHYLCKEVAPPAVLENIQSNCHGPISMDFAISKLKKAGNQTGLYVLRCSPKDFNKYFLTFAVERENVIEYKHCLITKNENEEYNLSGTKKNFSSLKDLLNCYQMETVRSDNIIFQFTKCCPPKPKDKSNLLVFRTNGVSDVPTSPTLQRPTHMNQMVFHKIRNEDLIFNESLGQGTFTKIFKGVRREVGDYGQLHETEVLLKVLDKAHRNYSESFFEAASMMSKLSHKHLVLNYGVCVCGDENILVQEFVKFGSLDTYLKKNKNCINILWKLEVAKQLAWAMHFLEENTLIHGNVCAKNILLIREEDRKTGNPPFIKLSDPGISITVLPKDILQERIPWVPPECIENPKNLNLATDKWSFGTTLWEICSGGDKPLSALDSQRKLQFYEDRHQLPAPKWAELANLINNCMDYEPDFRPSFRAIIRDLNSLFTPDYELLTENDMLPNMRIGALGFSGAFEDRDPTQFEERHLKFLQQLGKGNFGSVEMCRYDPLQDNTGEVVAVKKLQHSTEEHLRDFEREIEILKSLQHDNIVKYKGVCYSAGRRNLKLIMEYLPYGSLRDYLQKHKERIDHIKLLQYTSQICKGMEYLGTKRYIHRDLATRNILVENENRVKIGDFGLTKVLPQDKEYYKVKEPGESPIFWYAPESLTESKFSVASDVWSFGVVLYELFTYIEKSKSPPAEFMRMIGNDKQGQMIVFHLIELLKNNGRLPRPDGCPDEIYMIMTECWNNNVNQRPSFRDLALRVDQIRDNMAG
Method for TBK1: Enzymatic activity of IKKε and TBK1 was measured using a homogeneous time resolved fluorescence resonance energy transfer (TR-FRET) assay that monitors enzyme dependent phosphorylation of a biotinylated serine/threonine peptide substrate. […] TBK1 and IKKε were expressed and purified as full length recombinant proteins. Detection reagents for the assay were purchased from Cisbio. […] After an assay reaction time of 240 minutes at 25° C., reactions were terminated with EDTA.
All IC50 values represent geometric mean values of a minimum of four determinations.

One may read the IC50 as the midpoint of a concentration-inhibition curve. For `C[C@H](O)C(=O)N1CC[C@H](Oc2ccc(-c3ncnc(Nc4ccc(N5CC6(CCOCC6)C5)cc4)n3)cc2C#N)[C@H](F)C1` [Example 313, 5-(4-((4-(7-oxa-2-azaspiro[3.5]nonan-2-yl)phenyl)amino)-1,3,5-triazin-2-yl)-2-(((3R,4S)-3-fluoro-1-((S)-2-hydroxypropanoyl)piperidin-4-yl)oxy)benzonitrile], the results for the IC50 on hJAK2, on TBK1 and on IKKε were 375 nM, 4 nM and 2 nM, respectively.
For `C[C@H](O)C(=O)N1CC[C@H](Oc2ccc(-c3ncnc(Nc4ccc(N5CCOC(C(N)=O)C5)cc4)n3)cc2C#N)[C@H](F)C1` (stereo partly drawn) [Example 314, 4-(4-((4-(3-cyano-4-(((3R,4S)-3-fluoro-1-((S)-2-hydroxypropanoyl)piperidin-4-yl)oxy)phenyl)-1,3,5-triazin-2-yl)amino)phenyl)morpholine-2-carboxamide], in that order: 609 nM, 3 nM and 1 nM.
For `C[C@H](O)C(=O)N1CC[C@H](Oc2ccc(-c3ncnc(Nc4ccc(N5CCO[C@@H](C(N)=O)C5)cc4)n3)cc2C#N)[C@H](F)C1` [Example 315, (R)-4-(4-((4-(3-cyano-4-(((3R,4S)-3-fluoro-1-((S)-2-hydroxypropanoyl)piperidin-4-yl)oxy)phenyl)-1,3,5-triazin-2-yl)amino)phenyl)morpholine-2-carboxamide], in that order: 564 nM, 9 nM and 3 nM.
`C[C@H](O)C(=O)N1CC[C@H](Oc2ccc(-c3ncnc(Nc4ccc(N5CCO[C@H](C(N)=O)C5)cc4)n3)cc2C#N)[C@H](F)C1` [Example 316, (S)-4-(4-((4-(3-cyano-4-(((3R,4S)-3-fluoro-1-((S)-2-hydroxypropanoyl)piperidin-4-yl)oxy)phenyl)-1,3,5-triazin-2-yl)amino)phenyl)morpholine-2-carboxamide]: the IC50 on hJAK2 was found to be 347 nM; against TBK1, 3 nM; on IKKε, 2 nM.
Take `C[C@H](O)C(=O)N1CC[C@H](Oc2ccc(-c3ncnc(Nc4ccc(N5CC6COCC6C5)cc4)n3)cc2C#N)[C@H](F)C1` (stereo partly drawn) [Example 317, 2-(((3R,4S)-3-fluoro-1-((S)-2-hydroxypropanoyl)piperidin-4-yl)oxy)-5-(4-((4-(tetrahydro-1H-furo[3,4-c]pyrrol-5(3H)-yl)phenyl)amino)-1,3,5-triazin-2-yl)benzonitrile]: the IC50 is no less than 1000 nM on hJAK2, 2 nM against TBK1 and 1 nM at IKKε.
For `N#Cc1cc(-c2ncnc(Nc3ccc(N4CCN(C5COC5)CC4)cc3)n2)ccc1O[C@H]1CCN(C(=O)Cc2cnn[nH]2)C[C@H]1F` [Example 319, 2-(((3R,4S)-1-(2-(1H-1,2,3-triazol-5-yl)acetyl)-3-fluoropiperidin-4-yl)oxy)-5-(4-((4-(4-(oxetan-3-yl)piperazin-1-yl)phenyl)amino)-1,3,5-triazin-2-yl)benzonitrile] the same measures were 102 nM, 4 nM and 7 nM.
For `N#Cc1cc(-c2ncnc(Nc3ccc(N4CCN(C5COC5)CC4)cc3)n2)ccc1O[C@H]1CCN(C(=O)Cc2ccn[nH]2)C[C@H]1F` [Example 320, 2-(((3R,4S)-1-(2-(1H-pyrazol-5-yl)acetyl)-3-fluoropiperidin-4-yl)oxy)-5-(4-((4-(4-(oxetan-3-yl)piperazin-1-yl)phenyl)amino)-1,3,5-triazin-2-yl)benzonitrile] the same measures were 127 nM, 14 nM and 40 nM.
For `Cc1cc(C(=O)N2CC[C@H](Oc3ccc(-c4ncnc(Nc5ccc(N6CCN(C7COC7)CC6)cc5)n4)cc3C#N)[C@H](F)C2)[nH]n1` [Example 321, 2-(((3R,4S)-3-fluoro-1-(3-methyl-1H-pyrazole-5-carbonyl)piperidin-4-yl)oxy)-5-(4-((4-(4-(oxetan-3-yl)piperazin-1-yl)phenyl)amino)-1,3,5-triazin-2-yl)benzonitrile] the same measures were 164 nM, 3 nM and 2 nM.
For `N#Cc1cc(-c2ncnc(Nc3ccc(N4CCN(C5COC5)CC4)cc3)n2)ccc1O[C@H]1CCN(C(=O)c2[nH]ncc2Cl)C[C@H]1F` [Example 322, 2-(((3R,4S)-1-(4-chloro-1H-pyrazole-5-carbonyl)-3-fluoropiperidin-4-yl)oxy)-5-(4-((4-(4-(oxetan-3-yl)piperazin-1-yl)phenyl)amino)-1,3,5-triazin-2-yl)benzonitrile], the figures for the IC50 on hJAK2, against TBK1 and at IKKε were 192 nM, 5 nM and 8 nM, respectively.
Consider `N#Cc1cc(-c2ncnc(Nc3ccc(N4CCN(C5COC5)CC4)cc3)n2)ccc1O[C@H]1CCN(C(=O)c2[nH]nc(N)c2Cl)C[C@H]1F` [Example 323, 2-(((3R,4S)-1-(3-amino-4-chloro-1H-pyrazole-5-carbonyl)-3-fluoropiperidin-4-yl)oxy)-5-(4-((4-(4-(oxetan-3-yl)piperazin-1-yl)phenyl)amino)-1,3,5-triazin-2-yl)benzonitrile], for which the IC50 amounted to 75 nM on hJAK2, 3 nM against TBK1 and 3 nM on IKKε.
Take `COc1cc(Nc2ncnc(-c3ccc(O[C@H]4CCN(C(=O)[C@H](C)O)C[C@H]4F)c(C#N)c3)n2)ccc1N1CCC(N2CCOCC2)CC1` [Example 326, 2-(((3R,4S)-3-fluoro-1-((S)-2-hydroxypropanoyl)piperidin-4-yl)oxy)-5-(4-((3-methoxy-4-(4-morpholinopiperidin-1-yl)phenyl)amino)-1,3,5-triazin-2-yl)benzonitrile]: the IC50 at hJAK2 was found to be 72 nM; against TBK1, 2 nM; on IKKε, 1 nM.
For `COc1cc(Nc2ncnc(-c3ccc(O[C@H]4CCN(C(=O)CC#N)C[C@H]4F)c(C#N)c3)n2)ccc1N1CCC(N2CCOCC2)CC1` [Example 327, 2-(((3R,4S)-1-(2-cyanoacetyl)-3-fluoropiperidin-4-yl)oxy)-5-(4-((3-methoxy-4-(4-morpholinopiperidin-1-yl)phenyl)amino)-1,3,5-triazin-2-yl)benzonitrile] the same measures were 62 nM, 4 nM and 2 nM.
For `C[C@H](O)C(=O)N1CC[C@H](Oc2c(F)cc(-c3ncnc(Nc4ccc(N5CCN(C6COC6)CC5)cc4)n3)cc2C#N)[C@H](F)C1` [Example 328, 3-fluoro-2-(((3R,4S)-3-fluoro-1-((S)-2-hydroxypropanoyl)piperidin-4-yl)oxy)-5-(4-((4-(4-(oxetan-3-yl)piperazin-1-yl)phenyl)amino)-1,3,5-triazin-2-yl)benzonitrile] the same measures were no less than 1000 nM, 4 nM and 4 nM.
For `N#Cc1cc(-c2ncnc(Nc3ccc(N4CCN(C5COC5)CC4)cc3)n2)cc(F)c1O[C@H]1CCN(C(=O)CO)C[C@H]1F` [Example 329, 3-fluoro-2-(((3R,4S)-3-fluoro-1-(2-hydroxyacetyl)piperidin-4-yl)oxy)-5-(4-((4-(4-(oxetan-3-yl)piperazin-1-yl)phenyl)amino)-1,3,5-triazin-2-yl)benzonitrile] the same measures were 648 nM, 4 nM and 3 nM.
Consider `N#CCC(=O)N1CC[C@H](Oc2c(F)cc(-c3ncnc(Nc4ccc(N5CCN(C6COC6)CC5)cc4)n3)cc2C#N)[C@H](F)C1` [Example 330, 2-(((3R,4S)-1-(2-cyanoacetyl)-3-fluoropiperidin-4-yl)oxy)-3-fluoro-5-(4-((4-(4-(oxetan-3-yl)piperazin-1-yl)phenyl)amino)-1,3,5-triazin-2-yl)benzonitrile], for which the results for the IC50 at hJAK2, against TBK1 and at IKKε were 941 nM, 4 nM and 6 nM, respectively.
For `N#Cc1cc(-c2ncnc(Nc3ccc(N4CCN(C5COC5)CC4)cc3)n2)cc(F)c1O[C@H]1CCN(C(=O)CCO)C[C@H]1F` [Example 331, 3-fluoro-2-(((3R,4S)-3-fluoro-1-(3-hydroxypropanoyl)piperidin-4-yl)oxy)-5-(4-((4-(4-(oxetan-3-yl)piperazin-1-yl)phenyl)amino)-1,3,5-triazin-2-yl)benzonitrile], in that order: 943 nM, 7 nM and 14 nM.
For `N#Cc1cc(-c2ncnc(Nc3ccc(OCCN4CCCC4)cc3)n2)ccc1OC1CCOCC1` [Example 332, 5-(4-((4-(2-(pyrrolidin-1-yl)ethoxy)phenyl)amino)-1,3,5-triazin-2-yl)-2-((tetrahydro-2H-pyran-4-yl)oxy)benzonitrile] the same measures were 943 nM, 10 nM and 5 nM.
For `N#Cc1cc(-c2ncnc(Nc3ccc(N4CCN(C5COC5)CC4)cc3)n2)ccc1O[C@H]1CCN(C(=O)[C@@H]2COC(=O)N2)C[C@H]1F` [Example 333, 2-(((3R,4S)-3-fluoro-1-((S)-2-oxooxazolidine-4-carbonyl)piperidin-4-yl)oxy)-5-(4-((4-(4-(oxetan-3-yl)piperazin-1-yl)phenyl)amino)-1,3,5-triazin-2-yl)benzonitrile], in that order: 233 nM, 2 nM and 3 nM.
In the case of `N#Cc1cc(-c2ncnc(Nc3ccc(N4CCN(C5COC5)CC4)cc3)n2)ccc1O[C@H]1CCN(C(=O)c2nc(N)n[nH]2)C[C@H]1F` [Example 334, 2-(((3R,4S)-1-(3-amino-1H-1,2,4-triazole-5-carbonyl)-3-fluoropiperidin-4-yl)oxy)-5-(4-((4-(4-(oxetan-3-yl)piperazin-1-yl)phenyl)amino)-1,3,5-triazin-2-yl)benzonitrile], the IC50 on hJAK2 turned out to be 80 nM; against TBK1, 16 nM; at IKKε, 2 nM.
For `CC(=O)N[C@@H](C)C(=O)N1CC[C@H](Oc2ccc(-c3ncnc(Nc4ccc(N5CCN(C6COC6)CC5)cc4)n3)cc2C#N)[C@H](F)C1` [Example 335, N—((S)-1-((3R,4S)-4-(2-cyano-4-(4-((4-(4-(oxetan-3-yl)piperazin-1-yl)phenyl)amino)-1,3,5-triazin-2-yl)phenoxy)-3-fluoropiperidin-1-yl)-1-oxopropan-2-yl)acetamide], in that order: 478 nM, 508 nM and 834 nM.
